Assay results from US9932637B2, “Genetic polymorphisms associated with cardiovascular disorders and drug response, methods of detection and uses thereof” (CELERA CORPORATION, priority 2003, dated 2018).
Values joined by “and” are separate entries in the source; they are usually repeats but may differ in a detail not shown here. Identical values can stand only once.

System: patients with prior myocardial infarction (CARE study)
Assay: CARE aligned analysis (prospective and case/control design, white males): association of genotypes with pravastatin efficacy (Tables 13, 15)
Assay type: in vivo, human
Details: for Pravastatin vs placebo odds ratio, 0 rare alleles / Pravastatin vs placebo odds ratio, 1 rare allele / Pravastatin vs placebo odds ratio, 2 rare alleles / 2 rare alleles n/total (%), pravastatin patients: CARE, F MI/SD/NF MI; for Pravastatin Patients (%) / Pravastatin Patients n/total: WM
Protocol: The data presented in Table 8 based on an association of genotypes with pravastatin efficacy of the CARE samples were further analyzed and presented in Table 13. The further analysis was performed to align the data obtained from the analysis of the CARE samples, which was a prospective study, to the analysis of the WOSCOP samples, which was a case/control study. Table 13 also presents an analysis of the association of genotypes with pravastatin efficacy in the WOSCOPs samples. Relative to the analysis performed on the data presented in Table 8, there are two significant differences to determine if the SNP influenced pravastatin efficacy. Data obtained from the CARE samples were separated by study design into two groups, those in the prospective study design group and those in the case/control study design group. The original care study contained 16 protocol defined cardiovascular disease defined endpoints and 150 other phenotypes. […] The control groups used to compare the data were also divided into two groups, the “all possible” control group and the “cleaner” control group. […] Because the participants in the WOSCOPs trial were all white males, only data obtained from white males in the CARE study were analysed. Data from the “all possible” and “cleaner” controls were compared to data obtained from the cases in the prospective study design while only data from “cleaner” controls were compared to cases in the case/control study design. The data from the case/control cohorts were analysed using conditional logistic regression (as opposed to logistic regression used for the original anaylsis).
The anaylsis was refined as described for both Tables 13 and 14.

[1] = KLK14 hCV16044337, 0 Rare Alleles, CARE Case/Control, F&NF MI, All Possible controls
[2] = KLK14 hCV16044337, 0 Rare Alleles, CARE Case/Control, F&NF MI, Cleaner controls
[3] = KLK14 hCV16044337, 0 Rare Alleles, CARE Prospective, F&NF MI, All Possible controls
[4] = KLK14 hCV16044337, 0 Rare Alleles, CARE Prospective, F&NF MI, Cleaner controls
[5] = KLK14 hCV16044337, 1 Rare Allele, CARE Case/Control, F&NF MI, All Possible controls
[6] = KLK14 hCV16044337, 1 Rare Allele, CARE Case/Control, F&NF MI, Cleaner controls
[7] = KLK14 hCV16044337, 1 Rare Allele, CARE Prospective, F&NF MI, All Possible controls
[8] = KLK14 hCV16044337, 1 Rare Allele, CARE Prospective, F&NF MI, Cleaner controls
[9] = KLK14 hCV16044337, Case/Control
[10] = LPA hCV11225994, 0 Rare Alleles, CARE Case/Control, F&NF MI, Cleaner controls
[11] = LPA hCV11225994, 1 Rare Allele, CARE Case/Control, F&NF MI, Cleaner controls
[12] = MYH7 hCV25629396, 0 Rare Alleles, CARE Case/Control, F&NF MI, Cleaner controls
[13] = MYH7 hCV25629396, 0 Rare Alleles, CARE Prospective, F&NF MI, Cleaner controls
[14] = MYH7 hCV25629396, 1 Rare Allele, CARE Case/Control, F&NF MI, All Possible controls
[15] = MYH7 hCV25629396, 1 Rare Allele, CARE Case/Control, F&NF MI, Cleaner controls
[16] = MYH7 hCV25629396, 1 Rare Allele, CARE Prospective, F&NF MI, All Possible controls
[17] = MYH7 hCV25629396, 1 Rare Allele, CARE Prospective, F&NF MI, Cleaner controls
[18] = NOS3 hCV3219460, 0 Rare Alleles, CARE Case/Control, F&NF MI, All Possible controls
[19] = NOS3 hCV3219460, 0 Rare Alleles, CARE Case/Control, F&NF MI, Cleaner controls
[20] = NOS3 hCV3219460, 0 Rare Alleles, CARE Prospective, F&NF MI, All Possible controls
[21] = NOS3 hCV3219460, 0 Rare Alleles, CARE Prospective, F&NF MI, Cleaner controls
[22] = NOS3 hCV3219460, 1 Rare Allele, CARE Case/Control, F&NF MI, All Possible controls
[23] = NOS3 hCV3219460, 1 Rare Allele, CARE Case/Control, F&NF MI, Cleaner controls
[24] = NOS3 hCV3219460, 1 Rare Allele, CARE Prospective, F&NF MI, All Possible controls

CC[C@H](C)C(=O)O[C@H]1C[C@H](O)C=C2C=C[C@H](C)[C@H](CC[C@@H](O)C[C@@H](O)CC(=O)O)[C@H]21 [pravastatin]
Pravastatin vs placebo odds ratio, 0 rare alleles (KDR hCV22271999, Case/Control): 0.67 and 0.59
Pravastatin vs placebo odds ratio, 1 rare allele (KDR hCV22271999, Case/Control): 1.69
Pravastatin vs placebo odds ratio, 2 rare alleles (KDR hCV22271999, Case/Control): 0.38 and 0.31
2 rare alleles n/total (%), pravastatin patients (KDR hCV22271999, Prospective): (9.1%)
Pravastatin vs placebo odds ratio, 0 rare alleles (KDR hCV22271999, Prospective): 0.61
Pravastatin vs placebo odds ratio, 1 rare allele (KDR hCV22271999, Prospective): 1.41
Pravastatin vs placebo odds ratio, 2 rare alleles (KDR hCV22271999, Prospective): 0.27
Pravastatin Patients (%) [1]: (10.9%)
Pravastatin Patients n/total [1]: 60/548
Pravastatin Patients (%) [2]: (16.4%)
Pravastatin Patients n/total [2]: 60/365
Pravastatin Patients (%) [3]: (10.7%)
Pravastatin Patients n/total [3]: 60/560
Pravastatin Patients (%) [4]: (16.0%)
Pravastatin Patients n/total [4]: 60/374
Pravastatin Patients (%) [5]: (10.4%)
Pravastatin Patients n/total [5]: 57/547
Pravastatin Patients (%) [6]: (14.3%)
Pravastatin Patients n/total [6]: 57/399
Pravastatin Patients (%) [7]: (10.3%)
Pravastatin Patients n/total [7]: 57/556
Pravastatin Patients (%) [8]: (14.1%)
Pravastatin Patients n/total [8]: 57/404
Pravastatin vs placebo odds ratio, 0 rare alleles [9]: 1.02 and 0.98
Pravastatin vs placebo odds ratio, 1 rare allele [9]: 0.85 and 0.74
Pravastatin vs placebo odds ratio, 2 rare alleles [9]: 0.23
Pravastatin vs placebo odds ratio, 0 rare alleles (KLK14 hCV16044337, Prospective): 1.04 and 0.97
Pravastatin vs placebo odds ratio, 1 rare allele (KLK14 hCV16044337, Prospective): 0.86 and 0.73
Pravastatin vs placebo odds ratio, 2 rare alleles (KLK14 hCV16044337, Prospective): 0.22 and 0.23
Pravastatin Patients (%) [10]: (14.0%)
Pravastatin Patients n/total [10]: 88/627
Pravastatin Patients (%) [11]: (15.4%)
Pravastatin Patients n/total [11]: 29/188
2 Rare Alleles (%), Pravastatin Patients (LPA hCV11225994, CARE Case/Control, F&NF MI): (41.2%)
2 rare alleles n/total (%), pravastatin patients (MICA hCV25474101, Case/Control): (37.5%)
Pravastatin vs placebo odds ratio, 0 rare alleles (MICA hCV25474101, Case/Control): 0.67
Pravastatin vs placebo odds ratio, 1 rare allele (MICA hCV25474101, Case/Control): 0.72
Pravastatin vs placebo odds ratio, 2 rare alleles (MICA hCV25474101, Case/Control): 6.64
Pravastatin Patients (%) (MYH7 hCV25629396, 0 Rare Alleles, CARE Case/Control, F&NF MI, All Possible controls): (10.0%)
Pravastatin Patients (%) [12]: (14.5%)
Pravastatin Patients n/total [12]: 118/815
Pravastatin Patients (%) (MYH7 hCV25629396, 0 Rare Alleles, CARE Prospective, F&NF MI, All Possible controls): (9.8%)
Pravastatin Patients (%) [13]: (14.2%)
Pravastatin Patients n/total [13]: 118/829
Pravastatin Patients (%) [14]: (29.0%)
Pravastatin Patients n/total [14]: 9/31
Pravastatin Patients (%) [15]: (40.9%)
Pravastatin Patients n/total [15]: 9/22
Pravastatin Patients (%) [16]: (29.0%)
Pravastatin Patients n/total [16]: 9/31
Pravastatin Patients (%) [17]: (40.9%)
Pravastatin Patients n/total [17]: 9/22
Pravastatin vs placebo odds ratio, 0 rare alleles (MYH7 hCV25629396, Case/Control): 0.75 and 0.67
Pravastatin vs placebo odds ratio, 1 rare allele (MYH7 hCV25629396, Case/Control): 12.05 and 11.70
Pravastatin vs placebo odds ratio, 0 rare alleles (MYH7 hCV25629396, Prospective): 0.75 and 0.66
Pravastatin vs placebo odds ratio, 1 rare allele (MYH7 hCV25629396, Prospective): 13.41 and 14.00
Pravastatin Patients (%) [18]: (10.0%)
Pravastatin Patients n/total [18]: 53/529
Pravastatin Patients (%) [19]: (14.8%)
Pravastatin Patients n/total [19]: 53/359
Pravastatin Patients (%) [20]: (9.8%)
Pravastatin Patients n/total [20]: 53/539
Pravastatin Patients (%) [21]: (14.4%)
Pravastatin Patients n/total [21]: 53/368
Pravastatin Patients (%) [22]: (12.3%)
Pravastatin Patients n/total [22]: 64/520
Pravastatin Patients (%) [23]: (17.6%)
Pravastatin Patients n/total [23]: 64/363
Pravastatin Patients (%) [24]: (12.1%)
Pravastatin Patients n/total [24]: 64/527
Pravastatin Patients (%) (NOS3 hCV3219460, 1 Rare Allele, CARE Prospective, F&NF MI, Cleaner controls): (17.5%)
